{"source": "patent US20260199485A1", "about": "“RNA DEGRADERS AND USES THEREOF” (Arrakis Therapeutics, Inc., priority 2022, published 2026)", "key": {"[1]": {"target": "T1, CNOT7-FKBP12(F36V) fusion protein (Homo sapiens, UniProt Q9UIV1)", "T1 construct": "expressed in transfected cells; host or cells: H1299 cells; anti-HA immunoprecipitation, HA-peptide elution", "T1 sequence (Q9UIV1 with tags, fused parts or gaps)": "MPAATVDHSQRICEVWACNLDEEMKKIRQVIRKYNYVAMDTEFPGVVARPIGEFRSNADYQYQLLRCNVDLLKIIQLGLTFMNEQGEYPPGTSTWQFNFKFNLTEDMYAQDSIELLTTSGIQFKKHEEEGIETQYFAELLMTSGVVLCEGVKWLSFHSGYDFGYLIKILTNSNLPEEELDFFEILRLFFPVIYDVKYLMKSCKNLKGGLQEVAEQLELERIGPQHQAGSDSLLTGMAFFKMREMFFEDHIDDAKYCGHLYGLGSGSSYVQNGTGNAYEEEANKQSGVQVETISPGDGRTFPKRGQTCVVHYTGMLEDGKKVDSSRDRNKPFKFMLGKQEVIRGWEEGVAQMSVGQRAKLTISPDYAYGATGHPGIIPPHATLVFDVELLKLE", "assay": "Biochemical gel assay: degradation/deadenylation of RNA substrate with immunoprecipitated CNOT7-FKBP12(F36V)", "design": "key to Activity by gel: +: an activity observed as compared to DMSO control; −: no activity observed as compared to DMSO control", "settings": "for Activity by gel: Table 8, degradation of RNA, compared to DMSO control; for interference with the ability of CNOT7 to degrade RNA: compound added to the CNOT7 and RNA mixture (FIG. 11)", "source_text": "Biochemical reporter systems were generated to evaluate the ability of CNOT7 binding compounds to accelerate the degradation of RNA by CNOT7. […] Generation of the target RNA was described in the previous experiment. […] The bifunctional molecules consist of Compound 1-4 and the following rSM:\nwhich binds to the RNA sequence of AST-X, or the rSM linked to a tag that binds CNOT7-FKBPV. Specifically, the tag is compound AP1867 (CAS NO.: 195514-23-9), a known binder of FKBPV, resulting in the rSM-AP1867tag. The CNOT7-FKBPV is obtained by immunoprecipitation of cell engineered to express CNOT-FKBPV. Specifically, H1299 cells were transfected with plasmid expressing HA-tagged CNOT7-FKBP12(F36V) fusion protein. After 24 hours, cells were pelleted and lysed in the following lysis buffer: 20 mM HEPES pH 7.3, 0.2 mM EGTA, 10% glycerol, 0.1 mM DTT with cOmplete EDTA-free protease inhibitors (Millipore). After freeze-thawing, NaCl was added to a concentration of 400 mM and lysates were pelleted to clear cellular debris. Cleared lysate was adjusted to buffer conditions containing 0.1% NP-40 and 150 mM NaCl before being applied to Pierce Anti-HA magnetic beads (ThermoFisher) at 4° C. for 2-20 hours with end-over-end rotation. After washing, bound protein was competitively eluted with 2 mg/mL HA peptide (ThermoFisher) in activity assay buffer at 4° C. for 2-20 hours. It should be appreciated that this immunoprecipitation protocol will result in tagged CNOT7 that will likely have other components of the CCR4-NOT complex bound as well.\nThe reactions were incubated at 37° C., with specified timepoints removed from the reaction and combined with 2× formamide RNA loading buffer with 10 mM EDTA before boiling for 3 minutes to quench the reaction. Samples were run on a pre-warmed 15% TBE-Urea polyacrylamide gel at 180V for 90 minutes and then imaged using Cy2 settings on the Azure Biosystems 600 Imaging System. […] It should be noted that the CCR4-NOT complex includes proteins other than CNOT7, for instance CNOT6, that have deadenylation and/or exonuclease activity.\nThese findings were confirmed in the biochemical assay described above. […] In contrast, literature compounds that are active site binders, compounds A, B and C, structure depicted on the right-hand side, do interfere with the ability of CNOT7 to degrade RNA (See center panel of gel).\nHeterobifunctional molecules were generated by conjugating the rSM depicted above, which binds RNA with an AST-X sequence, to AP1867 (a small molecule binder of FKBP12(F36V)), resulting in rSM-AP1867tag. In addition, I-243 was conjugated to the rSM resulting in compounds 1-329 and I-371, depicted in FIG. 17. Fluorescently labeled RNA substrates were refolded in the presence of Mg^2+ and incubated 10, 25, or 50 μM doses of heterobifunctional molecules for 30 minutes at room temperature before the enzymatic reaction was initiated with the elution fraction (containing CNOT7-FKBP12(F36V) fusion protein) from the immunoprecipitation protocol above. The reactions were incubated at 37° C., with specified timepoints removed from the reaction and combined with 2× formamide RNA loading buffer with 10 mM EDTA before boiling for 3 minutes to quench the reaction. Samples were run on a pre-warmed 15% TBE-Urea polyacrylamide gel at 180V for 120 minutes and then imaged using Cy2 settings on the Azure Biosystems 600 Imaging System (See FIGS. 18, 19A and 19B). In addition, for 1-371 and the control rSM-AP1867tag, the disappearance of the full-length substrate band was quantified using ImageJ and plotted over time (FIG. 19B)."}, "CNOT7:CNOT1 complex": {"target": "T2, CNOT7:CNOT1 complex (Homo sapiens, UniProt Q9UIV1)", "T2 construct": "purchased Helix Biosciences; host or cells: E. coli", "T2 sequence (Q9UIV1 whole entry, the tested form may be a part)": "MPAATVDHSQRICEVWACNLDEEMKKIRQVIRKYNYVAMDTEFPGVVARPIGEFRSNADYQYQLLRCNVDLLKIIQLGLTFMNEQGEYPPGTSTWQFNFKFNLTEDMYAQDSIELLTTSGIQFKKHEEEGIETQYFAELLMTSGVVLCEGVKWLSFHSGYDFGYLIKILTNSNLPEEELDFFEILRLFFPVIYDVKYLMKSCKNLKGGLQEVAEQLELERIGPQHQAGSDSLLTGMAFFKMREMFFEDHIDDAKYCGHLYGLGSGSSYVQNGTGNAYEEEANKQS", "T2 sequence (A5YKK6 1093-1317 partner limits assumed)": "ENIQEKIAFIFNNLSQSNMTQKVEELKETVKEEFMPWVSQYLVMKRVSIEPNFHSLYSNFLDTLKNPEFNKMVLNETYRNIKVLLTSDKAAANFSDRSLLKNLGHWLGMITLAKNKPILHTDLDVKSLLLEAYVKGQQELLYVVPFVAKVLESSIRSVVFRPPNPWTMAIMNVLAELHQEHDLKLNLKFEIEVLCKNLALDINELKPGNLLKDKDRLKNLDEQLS", "assay": "CNOT7:CNOT1 recombinant assay (deadenylation gel)", "assay_type": "biochemical", "settings": "50 microM compound, 50 nM CNOT7:CNOT1", "description": "Recombinant CNOT7:CNOT1 (MIF4G domain: aa 1093-1317) complex was produced in E. coli including an 8×His affinity tag, which was cleaved prior to use. The resulting untagged complex was purified to high purity (Helix Biosciences). For this biochemical assay, deadenylation reactions are carried out by refolding 2 microM fluorescently labeled RNA substrate (5′ 6-FAM-[…] AAAAAA (SEQ ID NO:1)) in the presence of 100 mM KCl and 3 mM MgCl2 at 37 C for 30 minutes and then pre-incubating the RNA with 500 microM compound (inhibitor, heterobifunctional, or the CNOT7 binding moiety of the heterobifunctional) at room temperature for 30 minutes (in the presence of 0.05% Tween-20) before initiating the deadenylation reaction with the addition of recombinant CNOT7:CNOT1 complex. In the reactions, the final concentration of RNA was […], the final concentration of the compounds was 50 microM, and the final concentration of CNOT7:CNOT1 was 50 nM. Glycerol and BSA were included in the reactions to aid in protein stability and activity (final concentrations of 5% and 0.15 mg/mL, respectively). Timepoints were removed from the reaction and quenched by adding formamide loading dye including 10 mM EDTA. Samples were run on 15% TBE-Urea gels at 180V for 2-2.5 hours to resolve substrate and product bands and imaged using an Azure imager with FAM detection settings. Bands were quantified using ImageJ and % full length substrate over time was calculated by [Intensity of substrate band]/[Total intensity of full lane of gel]."}, "CNOT7 [2]": {"target": "T3, CNOT7 (Homo sapiens, UniProt Q9UIV1)", "T3 construct": "biotin (biotinylated); purchased Ichor Life Sciences", "T3 sequence (Q9UIV1 whole entry)": "as the sequence (Q9UIV1 whole entry, the tested form may be a part) above", "assay": "Binding of compounds to CNOT7 by surface plasmon resonance (SPR)", "in_short": "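Biotinylated CNOT7 captured on a streptavidin chip (~7,500 RU); compounds injected at several concentrations (120 s association, 120 s dissociation, 30 ul/min) in 20 mM HEPES pH7.5, 100 mM KCl, 3 mM MgCl2, 1 mM TCEP, 0.05% tween-20, 2% DMSO. Reference- and solvent-corrected sensograms fit to a 1:1 steady-state affinity model.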"}, "CNOT7 [3]": {"target": "T3, CNOT7", "assay": "CNOT7 inhibition assay (recombinant Avi-tagged CNOT7, deadenylation gel)", "assay_type": "biochemical", "settings": "50 μM compound, 100 nM recombinant Avi-tagged CNOT7, 200 nM RNA", "description": "Recombinant CNOT7 (with a C-terminal Avi tag) was produced in E. coli and purified to high purity. For this biochemical assay, deadenylation reactions are carried out by refolding 2 microM fluorescently labeled RNA substrate (5′ 6-FAM-[…] AAAAAA (SEQ ID NO:1) in the presence of 100 mM KCl and 3 mM MgCl2 at 37 C for 30 minutes and then pre-incubating the RNA with 500 microM compound (inhibitor, heterobifunctional, or the CNOT7 binding moiety of the heterobifunctional) at room temperature for 30 minutes (in the presence of 0.05% Tween-20) before initiating the deadenylation reaction with the addition of the recombinant CNOT7 (with Avi-tag). In the reactions, the final concentration of RNA was 200 nM, the final concentration of the compounds was 50 μM, and the final concentration of CNOT7 was 100 nM. Glycerol and BSA were included in the reactions to aid in protein stability and activity (final concentrations of 5% and 0.15 mg/mL, respectively). Timepoints were removed from the reaction and quenched by adding formamide loading dye including 10 mM EDTA. Samples were run on 15% TBE-Urea gels at 180V for 2-2.5 hours and imaged using an Azure imager with FAM detection settings. Bands were quantified using ImageJ and % full length substrate over time was normalized to band intensity at time zero.\nThis was to be expected as the CNOT7 binding moieties are not expected to bind in the active site or interfere with the ability of CNOT7 to deadenylate RNA. […] We speculate that the inhibition is caused by specific interaction of the heterobifunctional compounds with the recombinant Avi-tagged CNOT7."}, "CNOT7 [4]": {"target": "T3, CNOT7", "assay": "AMP competition assay by SPR (active site vs other site of CNOT7)", "assay_type": "binding", "settings": "combination with AMP, increasing concentrations", "description": "In order to evaluate if the compounds bound to the active site of CNOT7, an AMP competition experiment was performed. FIG. 5 provides a schematic of a surface plasmon resonance (SPR) experiment to interrogate if a CNOT7 binding compound binds in the active site of CNOT7. Briefly, AMP, which is a known binder to the active site, was interrogated at increasing concentrations for binding to CNOT7. As a next step, a CNOT7 binding compound was interrogated at increasing concentrations for binding to CNOT7. As a final step a combination of AMP and CNOT7 binding compound was interrogated by SPR at increasing concentrations for binding to CNOT7. If the signals were additive, AMP and the CNOT7 compounds bind to independent sites on CNOT7. […] In contrast, if the signals are not additive, this would indicate that AMP and CNOT7 […] for the same site. […] As a control, literature compounds that are active site binders, compounds A, B and C, are not additive when combined with AMP."}, "[5]": {"settings": "dissociation constant by SPR, Table 7"}, "[6]": {"settings": "Table 5, dissociation constant for CNOT7 by SPR"}, "[7]": {"settings": "Table 4, dissociation constant for CNOT7"}}}
{"molecule": "COc1ccc2c(c1)C[C@H](COCCOCCOCCOCCn1cc(COCCOCCOc3ccc(NC(=O)Nc4nc(CC(=O)N5CCN(C)CC5)cs4)cc3)nn1)C(C(=O)CSc1nc(=O)[nH]cc1C)C2", "note": "(some centres unmarked) [Compound I-496]", "values": [{"measurement": "Activity by gel", "setting": "[1]", "result": "+"}, {"measurement": "inhibited or accelerated the deadenylation activity of the CNOT7:CNOT1 complex", "setting": "CNOT7:CNOT1 complex", "result": "neither"}, {"measurement": "Kd", "setting": "CNOT7 [2]; [5]", "result": "> 25000", "unit": "nM"}, {"measurement": "inhibition of CNOT7 activity (rate of deadenylation vs DMSO control)", "setting": "CNOT7 [3]", "result": "inhibit some of the CNOT7 activity"}]}
{"molecule": "COc1ccc2c(c1)CCN(C(=O)CSc1nc(=O)[nH]cc1C)C2", "note": "[Compound I-198]", "values": [{"measurement": "inhibited or accelerated the deadenylation activity of the CNOT7:CNOT1 complex", "setting": "CNOT7:CNOT1 complex", "result": "neither"}, {"measurement": "Kd", "setting": "CNOT7 [2]; [6]", "result": "1000 to 25000", "unit": "nM"}, {"measurement": "inhibition of CNOT7 activity (rate of deadenylation vs DMSO control)", "setting": "CNOT7 [3]", "result": "did not inhibit CNOT7 activity"}]}
{"molecule": "COc1ccc(CNC(=O)CSc2nc(=O)[nH]cc2C)cc1", "note": "[Compound I-4]", "values": [{"measurement": "interference with the ability of CNOT7 to degrade RNA", "setting": "[1]", "result": "did not interfere"}, {"measurement": "Kd", "setting": "CNOT7 [2]; [7]", "result": "1000 to 25000", "unit": "nM"}, {"measurement": "SPR signal additive to AMP (additive = binds CNOT7 at a location other than the active site)", "setting": "CNOT7 [4]", "result": "additive to AMP"}]}
{"molecule": "COc1ccc([C@@H](C)NC(=O)[C@@H](CCOCCOCCOCCn2cc(COCCOCCOCCOCCOc3ccc(NC(=O)Nc4nc(CC(=O)N5CCN(C)CC5)cs4)cc3)nn2)Sc2nc(=O)[nH]cc2Cl)c(F)c1", "note": "[Compound I-397]", "values": [{"measurement": "Activity by gel", "setting": "[1]", "result": "+"}, {"measurement": "Kd", "setting": "CNOT7 [2]; [5]", "result": "1000 to 25000", "unit": "nM"}, {"measurement": "inhibition of CNOT7 activity (rate of deadenylation vs DMSO control)", "setting": "CNOT7 [3]", "result": "inhibit some of the CNOT7 activity"}]}
{"molecule": "COc1ccc(C(C)NC(=O)CSc2nc(=O)[nH]cc2C)c(F)c1", "note": "(centres unmarked) [Compound I-243]", "values": [{"measurement": "inhibited or accelerated the deadenylation activity of the CNOT7:CNOT1 complex", "setting": "CNOT7:CNOT1 complex", "result": "neither"}, {"measurement": "Kd", "setting": "CNOT7 [2]; [6]", "result": "100 to 1000", "unit": "nM"}, {"measurement": "inhibition of CNOT7 activity (rate of deadenylation vs DMSO control)", "setting": "CNOT7 [3]", "result": "slightly inhibited CNOT7 activity"}]}
{"molecule": "Cc1c[nH]c(=O)nc1SCC(=O)NCc1ccc2c(c1)OCO2", "note": "[Compound I-1]", "values": [{"measurement": "interference with the ability of CNOT7 to degrade RNA", "setting": "[1]", "result": "did not interfere"}, {"measurement": "Kd", "setting": "CNOT7 [2]; [7]", "result": "1000 to 25000", "unit": "nM"}, {"measurement": "SPR signal additive to AMP (additive = binds CNOT7 at a location other than the active site)", "setting": "CNOT7 [4]", "result": "additive to AMP"}]}
{"molecule": "Cc1c[nH]c(=O)nc1SCC(=O)NCc1ccccc1", "note": "[Compound I-3, N-Benzyl-2-[(5-methyl-2-oxo-1H-pyrimidin-4-yl)sulfanyl]acetamide]", "values": [{"measurement": "interference with the ability of CNOT7 to degrade RNA", "setting": "[1]", "result": "did not interfere"}, {"measurement": "Kd", "setting": "CNOT7 [2]; [7]", "result": "> 25000", "unit": "nM"}, {"measurement": "SPR signal additive to AMP (additive = binds CNOT7 at a location other than the active site)", "setting": "CNOT7 [4]", "result": "additive to AMP"}]}
{"molecule": "COc1ccc([C@@H](C)NC(=O)CSc2nc(=O)[nH]cc2Cl)c(F)c1", "note": "[Compound I-330]", "values": [{"measurement": "inhibited or accelerated the deadenylation activity of the CNOT7:CNOT1 complex", "setting": "CNOT7:CNOT1 complex", "result": "neither"}, {"measurement": "Kd", "setting": "CNOT7 [2]; Table 6, dissociation constant for CNOT7 by SPR", "result": "100 to 1000", "unit": "nM"}, {"measurement": "Kd", "setting": "CNOT7 [2]; [5]", "result": "1000 to 25000", "unit": "nM"}, {"measurement": "inhibition of CNOT7 activity (rate of deadenylation vs DMSO control)", "setting": "CNOT7 [3]", "result": "slightly inhibited CNOT7 activity"}]}
